{
  "source": "patent US11440912B2",
  "about": "“Process for the preparation of ribociclib and its salts” (FRESENIUS KABI ONCOLOGY LIMITED, priority 2017, dated 2022)",
  "origin": "cited, not measured here",
  "settings": "at 80% RH",
  "data": [
    {"smiles": "CN(C)C(=O)c1cc2cnc(Nc3ccc(N4CCNCC4)cn3)nc2n1C1CCCC1.O=C(O)CCC(=O)O", "note": "[ribociclib succinate]", "values": [
      {"measurement": "ribociclib succinate converts to hydrated form from the non-hydrated form", "result": 0.52, "unit": "%"}
    ]}
  ]
}
